Experiments:
BT20 cells = test: Killing of BT20 cells determined by Trypan blue exclusion; format: cell-based, human; conditions: 2.5 μM in DMSO, within 72 hours of treatment
phospho-STAT-3 = test: Phospho-STAT-3 immunoassay (Western blot) in BT20 breast cancer cells; format: cell-based, human; conditions: 25 μM
Description: Human breast carcinoma cell lines, BT20, 126, T47D, MCF-7, ZR75, BT474, 415, and 435 were maintained in Dulbecco's modified eagle medium (DMEM), supplemented with 10% fetal bovine serum (FBS) (complete medium) in a 37° C. incubator with 5% CO2. STAT-3 (C-20) antibody, which recognizes phosphorylated and non-phosphorylated STAT-3, was purchased from Santa Cruz Biotechnologies and utilized as a positive control. Phospho-STAT-3 antibody was purchased from New England Biolabs. Rabbit anti-mouse antibody (secondary antibody for anti-STAT-3 and antiphospho-STAT-3) were purchased from Amersham International.
BT-20 cells were seeded at a density of 2×10^6 cells per 100 mm diameter dish and allowed to grow for 24 hours. Fresh medium was added to each plate 2 hours before treatment with the compound. The compound was dissolved in DMSO to make 5 mM stock solution and added to the medium (10 ml) to obtain a final concentration of 25 μM. DMSO alone was added to the control cells to study the effect of vehicle. […]
Equal amounts total protein ([…]) were run in each lane of SDS-PAGE gel (10%) and transferred to IMMOBILON-P (Millipore, USA). […] The antibody was detected using the ECL Western blotting analysis kit (Amersham International) following the manufacturer's instructions.

O=S(=O)(/C=C/c1ccc(F)cc1)Cc1ccc(Cl)cc1 [FRI-20, E-4-fluorostyryl 4-chlorobenzyl sulfone]
BT20 cells killed (BT20 cells): more than 95% | phospho-STAT-3 staining after treatment (phospho-STAT-3; 48 hours at 37° C., phospho-STAT-3 antibody Western blot (FIG. 9)): complete loss of phospho-STAT-3 | STAT-3 staining (STAT-3 expression) after treatment (phospho-STAT-3; 48 hours, STAT-3 antibody Western blot (FIG. 9)): stained positive for STAT-3
